Data taken from article PMC10179701, “Towards Protection of Nucleic Acids from Herbicide Attack: Self-Assembly of Betaines Based on Pillar[5]arene with Glyphosate and DNA” (International Journal of Molecular Sciences, 2023).
Marks after values point to notes of the source that are not given here.

Key:
[1] = target: DNA from salmon sperm; assay: UV-Vis spectrophotometric titration, association with DNA from salmon sperm; assay type: binding; details: 1:1 complex, Tris-HCl buffer pH 7.44, CDNA 2.5 × 10^–7 M, BindFit
Method: The interaction of GIS with a series of synthesized pillar[5]arenes 1–4 and DNA was studied by UV-Vis spectroscopy. UV-Vis spectroscopy is a universal method to study the complex properties of synthetic receptors. The interaction of GIS with DNA from salmon sperm was initially studied (Figure 5). DNA from salmon sperm was chosen as a model substrate due to its relatively low molecular weight and small size. The experiments were carried out in a Tris-HCl buffer system (pH = 7.44).
The association constants were determined by spectrophotometric titration to quantify the interaction of DNA with GIS. The UV-Vis spectra of the DNA–GIS system were recorded in such a way that the DNA concentration remained constant (2.5 × 10^–7 M), and the herbicide concentration ratio increased from 1:0.3 to 1:10 (Figure 5b). The obtained experimental data were processed by the BindFit program. The association constant of a 1:1 complex was calculated (Figure S23). The logarithm of the association constant of DNA with GIS was determined as lgKa = 4.92. […] However, in this case, the association constant of the complexes was determined with a large error.
Further, the interaction of macrocycles 1–4 with the DNA from salmon sperm in Tris-HCl was studied by UV-Vis spectroscopy. […] The association constant of compound 4-DNA complex was determined by spectrophotometric titration. […] The logarithm of the association constant of pillar[5]arene 4 with the DNA was determined as lgKa (4–DNA) = 5.24.
The association constant of compound 1-DNA complex was also determined by spectrophotometric titration (Figure S25b). The logarithm of the association constant of pillar[5]arene 1 with DNA was determined as lgKa(1–DNA) = 4.88 (Figure S27). […]
buffer solution. The UV spectra of the solutions were then recorded. The stability constant of complex was calculated by Bindfit. […]
volume of 3 mL with Tris‐HCl buffer solution. The UV spectra of the solutions were then recorded. The stability constant of each complex was calculated by Bindfit. […]
stability constant of complex was calculated by Bindfit. […]

[2] = Dynamic light scattering of macrocycle aggregates in water; assay type: physicochemical; details: H2O, 298 K
Method: The next stage of the work was the study of aggregation properties of both previously synthesized ester derivatives of amino acids 1 and 2, and macrocyclic betaine derivatives 3 and 4 by dynamic light scattering (DLS). The study was carried out in water in the 1 × 10^–6–1 × 10^–4 M concentration range (Figures S11–S22). The size of associates increases with decreasing macrocycle 1 concentration in solution (Table 1). A different pattern is observed for betaine derivative 3. Thus, the particles become coarser, and the polydispersity index (PDI) of the systems increased with an increase in compound 3 concentration, which is probably due to the formation of β-sheets by oligopeptide substituents. The presence of two oppositely charged fragments in one substituent leads to the fact that compound 3 becomes similar to surfactant molecules in terms of its aggregation properties.

[3] = tested on: A549 cells; assay: MTT test, A549 cells; details: for IC50: A549, MTT, 24 h; for cytotoxic activity: A549, concentration range 2–100 μg/mL
Method: (§1) The next stage of this work was the study of pillar[5]arenes 1–4 ability to inhibit the viability and proliferative activity of embryonic lung epithelial (LEC) and human lung adenocarcinoma (A549) cells using the MTT test.
(§2) Further, the ability of GIS to inhibit the viability and proliferative activity of LEC and A549 cells was studied by the MTT test. […] The average inhibitory concentration (IC50) was calculated for GIS (Table 3). […]
(§3) 1.6. Cytotoxicity of pillar[5]arenes 1–4, GIS and their mixtures on A549 and LEC Cell Lines […]
(§4) activity of LEC cells and A549 cells was investigated using the MTT test according to [2]. A549 – human alveolar adenocarcinoma cell line (ATCC, Rockville, Maryland, USA) and cow embryo lung epithelial (LEC) cells (Animal Cell Culture Collection of Russian Academy of Agricultural Science, Kazan, Russia) were cultured in DMEM (GIBCO, Waltham, MA, USA) medium supplemented with 10% serum and 100 units/mL of penicillin (PanEco, Moscow, Russia) and streptomycin (PanEco, Moscow, Russia) in a humidified atmosphere with 5% CO2 at 37 °C. Cells were seeded in 96‐well plates at a concentration of 10^4 cells/well. After 24 h of cultivation, the medium was removed from the wells and replaced with a fresh one with the addition of the test substances. The volume of the culture medium in the wells was 100
(§5) μL. After 24 h incubation of cells in the presence of substances, the medium in the wells was replaced with a fresh one containing MTT reagent at a final concentration of 0.5 mg/mL. The cells were incubated with MTT for 4 h at 37 °C in an atmosphere of 5% CO2. Then, the medium was aspirated from the wells and 100 μL of dimethyl sulfoxide was added. Probes were incubated at 37 °C for 15 min in the dark for the formazan crystals to dissolve. The optical density of the formazan solution in the wells was measured using a plate reader (BioRad xMarkTM Microplate Spectrophotometer, USA) at a wavelength of 570 nm.
(§6) Three series of experiments were carried out with at least 8 replications for each variant in the series. […]

[4] = tested on: LEC cells; assay: MTT test, LEC cells; details: for IC50: MTT, 24 h; for cytotoxic activity: concentration range 2–100 μg/mL
Method: as §1, §2, §3, §4, §5, §6

[5] = tested on: A549 cells; assay: MTT assay, combined action of macrocycles with GIS on A549 cells; assay type: cell-based, human; details: A549, pillararene 1 × 10^–5 M with GIS 3.47 × 10^–2 M
Method: The ability to inhibit the viability and proliferative activity of A549 cells of macrocycles 1–4 in the presence of GIS was studied using the MTT assay. […] The developed approach opens up the possibility of creating pillar[5]arene-based herbicide antidotes. […]
fresh one with the addition of the test substances.
Then, the medium was aspirated from the wells
and 100 μL of dimethyl sulfoxide was added.
the formazan crystals to dissolve. […]
substances. […] After 24 h of incubation cells were […]

Row | SMILES | lgKa, logarithm of the association constant with DNA [1] | polydispersity index (PDI) ([2]; 1 × 10^–4 M) | size of aggregates d ([2]; 1 × 10^–4 M) | polydispersity index (PDI) ([2]; 1 × 10^–5 M) | size of aggregates d ([2]; 1 × 10^–5 M) | polydispersity index (PDI) ([2]; 1 × 10^–6 M) | size of aggregates d ([2]; 1 × 10^–6 M) | IC50 [3] | cytotoxic activity [3] | IC50 [4] | cytotoxic activity [4] | change of toxicity on combined action with GIS [5] | concentration at which cytotoxic effect was recorded ([3]; A549) | concentration without ability to reduce viability ([3]; A549) | concentration at which cytotoxic effect was recorded [4] | concentration without ability to reduce viability [4]
1 | CCOC(=O)CNC(=O)CNC(=O)C[N+](C)(C)CCCNC(=O)COc1cc2c(OCC(=O)NCCC[N+](C)(C)CC(=O)NCC(=O)NCC(=O)OCC)cc1Cc1cc(OCC(=O)NCCC[N+](C)(C)CC(=O)NCC(=O)NCC(=O)OCC)c(cc1OCC(=O)NCCC[N+](C)(C)CC(=O)NCC(=O)NCC(=O)OCC)Cc1cc(OCC(=O)NCCC[N+](C)(C)CC(=O)NCC(=O)NCC(=O)OCC)c(cc1OCC(=O)NCCC[N+](C)(C)CC(=O)NCC(=O)NCC(=O)OCC)Cc1cc(OCC(=O)NCCC[N+](C)(C)CC(=O)NCC(=O)NCC(=O)OCC)c(cc1OCC(=O)NCCC[N+](C)(C)CC(=O)NCC(=O)NCC(=O)OCC)Cc1cc(OCC(=O)NCCC[N+](C)(C)CC(=O)NCC(=O)NCC(=O)OCC)c(cc1OCC(=O)NCCC[N+](C)(C)CC(=O)NCC(=O)NCC(=O)OCC)C2.[Br-].[Br-].[Br-].[Br-].[Br-].[Br-].[Br-].[Br-].[Br-].[Br-] [Compound 1] | 4.88 | 0.37 | 249 ± 17 nm | 0.35 | 286 ± 57 nm | 0.39 | 441 ± 81 nm | >100 * μg/mL | did not show statistically significant cytotoxic activity | >100 * μg/mL | did not show statistically significant cytotoxic activity | slight decrease in toxicity | – | – | – | –
2 | C[N+](C)(CCCNC(=O)COc1cc2c(OCC(=O)NCCC[N+](C)(C)CC(=O)NCC(=O)NCC(=O)[O-])cc1Cc1cc(OCC(=O)NCCC[N+](C)(C)CC(=O)NCC(=O)NCC(=O)[O-])c(cc1OCC(=O)NCCC[N+](C)(C)CC(=O)NCC(=O)NCC(=O)[O-])Cc1cc(OCC(=O)NCCC[N+](C)(C)CC(=O)NCC(=O)NCC(=O)[O-])c(cc1OCC(=O)NCCC[N+](C)(C)CC(=O)NCC(=O)NCC(=O)[O-])Cc1cc(OCC(=O)NCCC[N+](C)(C)CC(=O)NCC(=O)NCC(=O)[O-])c(cc1OCC(=O)NCCC[N+](C)(C)CC(=O)NCC(=O)NCC(=O)[O-])Cc1cc(OCC(=O)NCCC[N+](C)(C)CC(=O)NCC(=O)NCC(=O)[O-])c(cc1OCC(=O)NCCC[N+](C)(C)CC(=O)NCC(=O)NCC(=O)[O-])C2)CC(=O)NCC(=O)NCC(=O)[O-] [Compound 3] | – | 0.55 | 565 ± 12 nm | 0.43 | 290 ± 38 nm | 0.39 | 276 ± 63 nm | >100 * μg/mL | did not show statistically significant cytotoxic activity | >100 * μg/mL | did not show statistically significant cytotoxic activity | No significant differences | – | – | – | –
3 | CC(C)N.O=C(O)CNCP(=O)(O)O [GIS, glyphosate isopropylamine salt, reference compound] | 4.92 | – | – | – | – | – | – | 10,180 μg/mL | – | 11,430 μg/mL | – | – | ≥ 10000 µg/mL | ≤ 5000 µg/mL | ≥ 10000 µg/mL | ≤ 5000 µg/mL
